Experimental data as given in patent US12391685B2, “Inhibitors of RNA-guided nuclease target binding and uses thereof” (THE BROAD INSTITUTE, INC., priority 2018, dated 2025).
pIC50: −log10 of the molar value. In brackets after ≈: the same amount, converted by molar mass. Entries after “also recorded” stand apart in the source; their conditions may differ.

Tests used:
SpCas9:gRNA = biological target: T1, SpCas9:gRNA (Streptococcus pyogenes serotype M1, UniProt Q99ZW2); test: In vitro DNA cleavage assay; type: biochemical, S. pyogenes; conditions: SpCas9 5 nM; read-out: apparent IC50
T1 construct: made in house; host or cells: E. coli Rosetta (DE3)
T1 sequence (Q99ZW2 whole entry): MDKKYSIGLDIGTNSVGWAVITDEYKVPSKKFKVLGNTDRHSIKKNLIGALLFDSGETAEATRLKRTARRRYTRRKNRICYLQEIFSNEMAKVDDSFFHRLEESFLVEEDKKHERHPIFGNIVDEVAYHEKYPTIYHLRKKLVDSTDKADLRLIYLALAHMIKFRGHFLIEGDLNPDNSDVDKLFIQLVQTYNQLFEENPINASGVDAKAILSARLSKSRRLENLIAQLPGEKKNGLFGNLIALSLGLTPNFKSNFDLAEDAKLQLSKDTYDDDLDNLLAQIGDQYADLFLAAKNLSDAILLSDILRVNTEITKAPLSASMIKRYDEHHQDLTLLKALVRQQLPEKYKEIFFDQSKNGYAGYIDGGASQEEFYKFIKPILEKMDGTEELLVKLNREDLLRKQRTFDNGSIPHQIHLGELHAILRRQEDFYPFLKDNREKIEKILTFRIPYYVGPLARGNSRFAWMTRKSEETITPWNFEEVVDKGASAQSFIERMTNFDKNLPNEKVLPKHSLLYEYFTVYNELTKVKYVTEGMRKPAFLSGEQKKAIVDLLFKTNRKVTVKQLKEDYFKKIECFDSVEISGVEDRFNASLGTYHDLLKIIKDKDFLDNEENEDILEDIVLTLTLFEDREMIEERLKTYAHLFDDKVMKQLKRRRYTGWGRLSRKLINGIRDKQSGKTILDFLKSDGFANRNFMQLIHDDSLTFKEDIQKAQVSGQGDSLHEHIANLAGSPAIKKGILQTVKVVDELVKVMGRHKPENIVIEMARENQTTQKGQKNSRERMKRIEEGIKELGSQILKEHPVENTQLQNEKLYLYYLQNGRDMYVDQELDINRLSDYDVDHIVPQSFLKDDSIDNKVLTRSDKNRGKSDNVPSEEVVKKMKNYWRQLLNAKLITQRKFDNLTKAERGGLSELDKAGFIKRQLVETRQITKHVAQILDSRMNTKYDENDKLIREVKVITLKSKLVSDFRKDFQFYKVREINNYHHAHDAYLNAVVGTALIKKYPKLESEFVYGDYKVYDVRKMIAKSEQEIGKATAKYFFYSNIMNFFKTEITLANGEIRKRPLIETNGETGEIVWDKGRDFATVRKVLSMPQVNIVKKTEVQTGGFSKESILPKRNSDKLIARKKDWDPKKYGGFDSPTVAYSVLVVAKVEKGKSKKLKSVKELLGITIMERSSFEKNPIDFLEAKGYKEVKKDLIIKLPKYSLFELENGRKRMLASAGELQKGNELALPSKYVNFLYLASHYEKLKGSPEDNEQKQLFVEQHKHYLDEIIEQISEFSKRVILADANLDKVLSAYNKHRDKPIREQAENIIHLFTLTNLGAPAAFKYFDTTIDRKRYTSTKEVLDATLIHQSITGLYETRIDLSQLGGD
Method: In vitro DNA cleavage assay. Inhibition of SpCas9 nuclease activity was assessed in an in vitro DNA cleavage assay with a linearized substrate plasmid DNA. A 94 μL of preformed SpCas9:gRNA (5.3 nM) was incubated with a 3 μL DMSO solution of BRD0539 at the indicated concentrations (13.6-25 μM) for 30 min at room temperature followed by addition of 3 μL of 33.3 nM substrate DNA and incubation for additional 30 min at 37° C. The reaction was quenched by the addition of 2 μL of Proteinase K (Qiagen) for 10 min and then analyzed by 1% agarose gel and visualized by SYBR Gold (Thermofisher). The bands were quantified by Image J and plotted in GraphPad Prism.

SpCas9:DNA interactions = biological target: T2, SpCas9:DNA interactions (Streptococcus pyogenes serotype M1, UniProt Q99ZW2); test: Differential scanning fluorimetry, disruption of SpCas9-DNA interaction; type: binding, S. pyogenes; conditions: SpCas9 1 μM, 8PAM DNA 2 μM, BRD0539 5-20 μM
T2 construct: made in house; host or cells: E. coli Rosetta (DE3)
T2 sequence (Q99ZW2 whole entry): as above
Method: Disruption of SpCas9-DNA interaction by BRD0539. Protein melting experiments were performed in a 384-well format using a 6 μL reaction volume in a LightCycler 480 instrument. For DNA binding assay, 1 μM SpCas9 (1 μM) was incubated with indicated amount of 8PAM DNA (0.25, 0.5, 1, and 2 μM) for 15 min in a 20 mM Tris-HCl buffer (150 mM KCl, 5 mM MgCl2, 1 mM DTT, pH 7.5). For inhibition assay, SpCas9 (1 μM) or SpCas9:gRNA (1 μM) was incubated with indicated amount of either BRD0539 or equivalent amount of DMSO for 15 min in a 20 mM Tris-HCl buffer (150 mM KCl, 5 mM MgCl2, 1 mM DTT, pH 7.5). Next, a 8PAM DNA (2 μM) was added to each of the reaction and incubated for additional 15 min followed by addition of 1 μL of 100×SYPRO® Orange (Invitrogen) before running the melting cycle with a temperature gradient of 4.8° C./min. Experiments were performed in duplicate and data were processed using Roche LightCycler® 480 Protein Melting software.

SpCas9 = SpCas9 (Streptococcus pyogenes serotype M1, UniProt Q99ZW2); test: mKate2-disruption assay in HEK293T cells; type: cell-based, S. pyogenes; conditions: 1.5-5 μM, 24 h
Chain of SpCas9 (Q99ZW2 whole entry): as above
Method: mKate2-disruption assay. Approximately 8,000 cells/well were seeded in a 96-well plate 24 h before transient transfection with 100 ng of either CgRNA (Addgene Plasmid #64955) or T1gRNA (Addgene Plasmid #62717) plasmids using Lipofectamine 2000 (Life Technologies). Transfected cells were allowed to grow in the indicated amount of small molecule or DMSO for 24 h. Cells were then fixed using 4% paraformaldehyde and imaged with the HCS NuclearMask™ Blue Stain (Life Technologies) as the nuclear counter-staining agent. Imaging was performed with an ImageXpress Micro automated microscope (Molecular Devices) at 20× magnification under two excitation channels (blue and red) with 9 acquisition sites per well. Images were analyzed using the MetaXpress software to determine the % mKate2 positive cells and data was plotted using GraphPad Prism 6. The Z′-value was calculated following the formula: Z′=1−(3(σ1+σ2))/(|μ1−μ2|) where σ1 and σ2 are the standard deviations of CgRNA transfected wells and T1gRNA transfected wells respectively. μ1 and μ2 are the mean % RFP^+ cell population for CgRNA transfected wells and T1gRNA transfected wells, respectively.

physchem = conditions: PBS, aqueous buffer

In the case of `Cc1ccc(S(=O)(=O)N2CC[C@@H]3[C@H](CO)Nc4ccc(-c5ccccc5F)cc4[C@@H]32)cc1` [BRD0539, ((3aR,4R,9bR)-8-(2-fluorophenyl)-1-tosyl-2,3,3a,4,5,9b-hexahydro-1H-pyrrolo[3,2-c]quinolin-4-yl) methanol], the pIC50 (SpCas9:gRNA) was 4.66 and the “effect on formation of the DNA-bound state of SpCas9 (in words)” value (SpCas9:DNA interactions) was “dose-dependently blocked the formation of the DNA bound state; also recorded: dose-dependently blocked the formation of the DNA-bound state”.

For `OC[C@H]1Nc2ccc(-c3cccc(F)c3)cc2[C@H]2[C@@H]1CCN2Cc1ccncc1` [BRD7087, ((3aR,4S,9bR)-8-(3-Fluorophenyl)-1-(pyridin-4-ylmethyl)-2,3,3a,4,5,9b-hexahydro-1H-pyrrolo[3,2-c]quinolin-4-yl) methanol], the “inhibition of SpCas9 in the mKate2 disruption assay (in words)” value (SpCas9) was “dose-dependent inhibition” and the solubility at 24 h (physchem) was 75 µM (≈ 29.2 µg/mL).
